Experiments:
Type in all cases: in vivo
[1] = test system: Spodoptera littoralis (Egyptian Cotton Leaf Worm); test: Example B7: Spodoptera littoralis (Egyptian cotton leaf worm), cotton leaf discs sprayed, L1 larvae; conditions: foliar, 72 h, application rate of 200 ppm, 3 days after infestation, L1 larvae, read-out: control in at least one of the three categories (mortality, anti-feedant effect, or growth inhibition)
Method in brief: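 Spray application onto agar-supported cotton leaf discs used aqueous solutions derived from 10′000 ppm DMSO stocks. Once dry, discs were infested with five L1 larvae and evaluated after 3 days for mortality, anti-feeding and growth inhibition relative to untreated controls.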

[2] = test system: Myzus persicae (Green Peach Aphid); test: Example B5: Myzus persicae (green peach aphid) feeding/contact activity, sunflower leaf discs; conditions: foliar, 144 h, application rate of 200 ppm, 6 days after infestation
Experimental: Sunflower leaf discs were placed onto agar in a 24-well microtiter plate and sprayed with aqueous test solutions prepared from 10′000 ppm DMSO stock solutions. After drying, the leaf discs were infested with an aphid population of mixed ages. The samples were assessed for mortality 6 days after infestation.

[3] = test system: Euschistus heros (Neotropical Brown Stink Bug); test: Example B2: Euschistus heros (neotropical brown stink bug), soybean leaves sprayed, N2 nymphs; conditions: 120 h, application rate of 200 ppm, 5 days after infestation, N2 nymphs, read-out: control in at least one of the two categories (mortality or growth inhibition)
Experimental: Soybean leaves on agar in 24-well microtiter plates were sprayed with aqueous test solutions prepared from 10′000 ppm DMSO stock solutions. After drying the leaves were infested with N2 nymphs. The samples were assessed for mortality and growth inhibition in comparison to untreated samples 5 days after infestation.

[4] = test system: Chilo suppressalis (Striped Rice Stemborer); test: Example B3: Chilo suppressalis (striped rice stemborer), artificial diet, L2 larvae; conditions: 144 h, application rate of 200 ppm, 6 days after infestation, L2 larvae, read-out: control in at least one of the three categories (mortality, anti-feedant effect, or growth inhibition)
Method in brief: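 First, artificial diet was treated with aqueous solutions prepared from 10'000 ppm DMSO stocks; second, after drying, L2 larvae (6-8/well) were added; third, effects were assessed at 6 days against untreated controls, counting control when any of three categories was higher.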

[5] = test system: Myzus persicae (Green Peach Aphid); test: Example B6: Myzus persicae (green peach aphid) intrinsic activity, sucrose solution; conditions: 120 h, test rate of 12 ppm, 5 days after infestation, intrinsic activity, read-out: mortality
Method in brief: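 Mortality was read 5 days after infestation. Aphids on pea seedlings fed through a stretched Parafilm membrane on inverted 24-well plates containing sucrose solution mixed with test compound, which was diluted from 10′000 ppm DMSO stock.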

[6] = test system: Diabrotica Balteata (Corn Root Worm); test: Example B1: Diabrotica balteata (corn root worm), maize sprouts sprayed, L2 larvae; conditions: 96 h, application rate of 200 ppm, 4 days after infestation, L2 larvae, read-out: control in at least one of the two categories (mortality or growth inhibition)
Method in brief: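 Larvae at L2 stage, 6 to 10 per well, feed on dried, spray-treated maize sprouts set on agar. Evaluation after 4 days compares mortality and growth inhibition with untreated samples.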

[7] = test system: Plutella xylostella (Diamond Back Moth); test: Example B4: Plutella xylostella (diamond back moth), artificial diet, eggs, 24-well; conditions: 192 h, application rate of 200 ppm, 8 days after infestation, eggs, read-out: control in at least one of the two categories (mortality or growth inhibition)
Experimental: 24-well microtiter plates with artificial diet were treated with aqueous test solutions prepared from 10′000 ppm DMSO stock solutions by pipetting. After drying, Plutella eggs were pipetted through a plastic stencil onto a gel blotting paper and the plate was closed with it. The samples were assessed for mortality and growth inhibition in comparison to untreated samples 8 days after infestation.

C[C@H](Nc1ncnc2c(C(F)(F)F)cc(C(F)(F)F)cc12)c1ncnn1-c1ncccn1 [P.1, N-[(1S)-1-(2-pyrimidin-2-yl-1,2,4-triazol-3-yl)ethyl]-6,8-bis(trifluoromethyl)quina-zolin-4-amine]
≥ 80%: percent control (mortality, anti-feedant effect or growth inhibition) at 200 ppm [1] | mortality at 200 ppm [2] | percent control (mortality or growth inhibition) at 200 ppm [3] | percent control (mortality, anti-feedant effect or growth inhibition) at 200 ppm [4] | mortality at 12 ppm [5] | percent control (mortality or growth inhibition) at 200 ppm [6] | percent control (mortality or growth inhibition) at 200 ppm [7]

CCN(c1ncnc2c(C(F)(F)F)cc(C(F)(F)F)cc12)C(C)c1ncnn1-c1ccc(C#N)cn1 (stereo not drawn) [P.6, 6-[5-[1-[[6,8-bis(trifluoromethyl)quina-zolin-4-yl]-ethyl-amino]ethyl]-1,2,4-triazol-1-yl]pyridine-3-carbonitrile]
≥ 80%: percent control (mortality, anti-feedant effect or growth inhibition) at 200 ppm [1] | mortality at 200 ppm [2] | percent control (mortality or growth inhibition) at 200 ppm [3] | percent control (mortality, anti-feedant effect or growth inhibition) at 200 ppm [4] | mortality at 12 ppm [5] | percent control (mortality or growth inhibition) at 200 ppm [6] | percent control (mortality or growth inhibition) at 200 ppm [7]

C[C@@H](c1ncnn1-c1ccc(C#N)cn1)N(C)c1ncnc2c(C(F)(F)F)cc(Cl)cc12 [P.21, 6-[5-[(1S)-1-[[6-chloro-8-(trifluoromethyl)quinazolin-4-yl]-methyl-amino]ethyl]-1,2,4-triazol-1-yl]pyridine-3-carbonitrile]
≥ 80%: percent control (mortality, anti-feedant effect or growth inhibition) at 200 ppm [1] | mortality at 200 ppm [2] | percent control (mortality or growth inhibition) at 200 ppm [3] | percent control (mortality, anti-feedant effect or growth inhibition) at 200 ppm [4] | mortality at 12 ppm [5] | percent control (mortality or growth inhibition) at 200 ppm [6] | percent control (mortality or growth inhibition) at 200 ppm [7]

C[C@@H](c1ncnn1-c1ncccn1)N(C)c1ncnc2c(C(F)(F)F)cc(Cl)cc12 [P.23, 6-chloro-N-methyl-N-[(1S)-1-(2-pyrimidin-2-yl-1,2,4-triazol-3-yl)ethyl]-8-(trifluoromethyl)quinazolin-4-amine]
≥ 80%: percent control (mortality, anti-feedant effect or growth inhibition) at 200 ppm [1] | mortality at 200 ppm [2] | percent control (mortality or growth inhibition) at 200 ppm [3] | percent control (mortality, anti-feedant effect or growth inhibition) at 200 ppm [4] | mortality at 12 ppm [5] | percent control (mortality or growth inhibition) at 200 ppm [6] | percent control (mortality or growth inhibition) at 200 ppm [7]

C[C@@H](c1ncnn1-c1ncccn1)N(C)c1ncnc2c(C(F)(F)F)cc(C(F)(F)F)cc12 [P.26, N-methyl-N-[(1S)-1-(2-pyrimidin-2-yl-1,2,4-triazol-3-yl)ethyl]-6,8-bis(trifluoromethyl)quina-zolin-4-amine]
≥ 80%: percent control (mortality, anti-feedant effect or growth inhibition) at 200 ppm [1] | mortality at 200 ppm [2] | percent control (mortality or growth inhibition) at 200 ppm [3] | percent control (mortality, anti-feedant effect or growth inhibition) at 200 ppm [4] | mortality at 12 ppm [5] | percent control (mortality or growth inhibition) at 200 ppm [6] | percent control (mortality or growth inhibition) at 200 ppm [7]

CC(c1ncnn1-c1ncccn1)N(C)c1ncnc2c(C(F)(F)F)cc(C(F)(F)F)cc12 (stereo not drawn) [P.27, N-methyl-N-[1-(2-pyrimidin-2-yl-1,2,4-triazol-3-yl)ethyl]-6,8-bis(trifluoromethyl)quinazolin-4-amine]
≥ 80%: percent control (mortality, anti-feedant effect or growth inhibition) at 200 ppm [1] | mortality at 200 ppm [2] | percent control (mortality or growth inhibition) at 200 ppm [3] | percent control (mortality, anti-feedant effect or growth inhibition) at 200 ppm [4] | mortality at 12 ppm [5] | percent control (mortality or growth inhibition) at 200 ppm [6] | percent control (mortality or growth inhibition) at 200 ppm [7]

CC(c1ncnn1-c1ccc(C#N)cn1)N(C)c1ncnc2c(C(F)(F)F)cc(C(F)(F)F)cc12 (stereo not drawn) [P.28, 6-[5-[1-[[6,8-bis(trifluoromethyl)quina-zolin-4-yl]-methyl-amino]ethyl]-1,2,4-triazol-1-yl]pyridine-3-carbonitrile]
≥ 80%: percent control (mortality, anti-feedant effect or growth inhibition) at 200 ppm [1] | mortality at 200 ppm [2] | percent control (mortality or growth inhibition) at 200 ppm [3] | percent control (mortality, anti-feedant effect or growth inhibition) at 200 ppm [4] | mortality at 12 ppm [5] | percent control (mortality or growth inhibition) at 200 ppm [6] | percent control (mortality or growth inhibition) at 200 ppm [7]

C[C@@H](c1ncnn1-c1ccc(C#N)cn1)N(C)c1ncnc2c(C(F)(F)F)cc(C(F)(F)F)cc12 [P.54, 6-[5-[(1S)-1-[[6,8-bis(trifluoromethyl)quina-zolin-4-yl]-methyl-amino]ethyl]-1,2,4-triazol-1-yl]pyridine-3-carbonitrile]
≥ 80%: percent control (mortality, anti-feedant effect or growth inhibition) at 200 ppm [1] | mortality at 200 ppm [2] | percent control (mortality or growth inhibition) at 200 ppm [3] | percent control (mortality, anti-feedant effect or growth inhibition) at 200 ppm [4] | mortality at 12 ppm [5] | percent control (mortality or growth inhibition) at 200 ppm [6] | percent control (mortality or growth inhibition) at 200 ppm [7]

CCN(c1ncnc2c(C(F)(F)F)cc(Cl)cc12)[C@@H](C)c1ncnn1-c1ccc(C#N)cn1 [P.128, 6-[5-[(1S)-1-[[6-chloro-8-(trifluoromethyl)quinazolin-4-yl]-ethyl-amino]ethyl]-1,2,4-triazol-1-yl]pyridine-3-carbonitrile]
≥ 80%: percent control (mortality, anti-feedant effect or growth inhibition) at 200 ppm [1] | mortality at 200 ppm [2] | percent control (mortality or growth inhibition) at 200 ppm [3] | percent control (mortality, anti-feedant effect or growth inhibition) at 200 ppm [4] | mortality at 12 ppm [5] | percent control (mortality or growth inhibition) at 200 ppm [6] | percent control (mortality or growth inhibition) at 200 ppm [7]

C[C@@H](c1ncnn1-c1ccc(C(N)=S)cn1)N(C)c1ncnc2c(C(F)(F)F)cc(C(F)(F)F)cc12 [P.190, 6-[5-[(1S)-1-[[6,8-bis(trifluoromethyl)quinazolin-4-yl]-methyl-amino]ethyl]-1,2,4-triazol-1-yl]pyridine-3-carbothioamide]
≥ 80%: mortality at 200 ppm [2] | percent control (mortality or growth inhibition) at 200 ppm [3] | percent control (mortality, anti-feedant effect or growth inhibition) at 200 ppm [4] | mortality at 12 ppm [5] | percent control (mortality or growth inhibition) at 200 ppm [6] | percent control (mortality or growth inhibition) at 200 ppm [7]

C[C@@H](c1ncnn1-c1ccc(C(N)=S)cn1)N(C)c1ncnc2c(C(F)(F)F)cc(Cl)cc12 [P.191, 6-[5-[(1S)-1-[[6-chloro-8-(trifluoromethyl)quinazolin-4-yl]-methyl-amino]ethyl]-1,2,4-triazol-1-yl]pyridine-3-carbothioamide]
≥ 80%: mortality at 200 ppm [2] | percent control (mortality or growth inhibition) at 200 ppm [3] | percent control (mortality, anti-feedant effect or growth inhibition) at 200 ppm [4] | mortality at 12 ppm [5] | percent control (mortality or growth inhibition) at 200 ppm [6] | percent control (mortality or growth inhibition) at 200 ppm [7]
